US7884127B2, “Inhibitors of cyclin dependent kinases and their use” (Pirimal Life Sciences Ltd., priority 2002, dated 2011)

Row | melting point | SMILES
1 | 237 to 239 °C | CN1CC[C@@H](c2c(O)cc(O)c3c(=O)cc(-c4ccc(C#N)cc4Cl)oc23)[C@@H]1CO [Example 98, (+)-trans-3-Chloro-4-[5,7-dihydroxy-8-(2-hydroxymethyl-1-methyl-pyrrolidin-3-yl)-4-oxo-4H-chromen-2-yl]-benzonitrile]
2 | 186 °C | CN1CC[C@@H](c2c(O)cc(O)c3c(=O)cc(-c4ccc([N+](=O)[O-])cc4Br)oc23)[C@@H]1CO [Example 42, (+)-trans-2-(2-Bromo-4-nitro-phenyl)-5,7-dihydroxy-8-(2-hydroxymethyl-1-methyl-pyrrolidin-3-yl)-chromen-4-one]
3 | 189 to 190 °C | CN1CC[C@@H](c2c(O)cc(O)c3c(=O)cc(-c4cc(O)ccc4Cl)oc23)[C@@H]1CO.Cl
4 | 218 to 220 °C | CN1CC[C@@H](c2c(O)cc(O)c3c(=O)cc(-c4cccs4)oc23)[C@@H]1CO [Example 68, (+)-trans-5,7-Dihydroxy-8-(2-hydroxymethyl-1-methyl-pyrrolidin-3-yl)-2-thiophen-2-yl-chromen-4-one]
5 | 253 to 254 °C | CN1CC[C@@H](c2c(O)cc(O)c3c(=O)cc(-c4cc(F)ccc4Cl)oc23)[C@@H]1CO (racemic) [Example 23, (±)-trans-2-(2-Chloro-5-fluoro-phenyl)-5,7-dihydroxy-8-(2-hydroxymethyl-1-methyl-pyrrolidin-3-yl)-chromen-4-one]
6 | 206 to 208 °C | Cc1ccc(Cl)c(-c2cc(=O)c3c(O)cc(O)c([C@@H]4CCN(C)[C@H]4CO)c3o2)c1 [Example 38, (+)-trans-2-(2-Chloro-5-methyl-phenyl)-5,7-dihydroxy-8-(2-hydroxymethyl-1-methyl-pyrrolidin-3-yl)-chromen-4-one]
7 | 206 to 208 °C | CN1CC[C@@H](c2c(O)cc(O)c3c(=O)cc(-c4ccccc4F)oc23)[C@@H]1CO [Example 21, (+)-trans-2-(2-Fluoro-phenyl)-5,7-dihydroxy-8-(2-hydroxymethyl-1-methyl-pyrrolidin-3-yl)-chromen-4-one]
8 | 208 to 210 °C | CNc1ccc(Cl)c(-c2cc(=O)c3c(O)cc(O)c([C@@H]4CCN(C)[C@H]4CO)c3o2)c1 (racemic) [Example 102, (±)-trans-2-(2-Chloro-5-methylamino-phenyl)-5,7-dihydroxy-8-(2-hydroxymethyl-1-methyl-pyrrolidin-3-yl)-chromen-4-one]
9 | 218 to 220 °C | CN1CC[C@@H](c2c(O)cc(O)c3c(=O)cc(-c4cccc(F)c4)oc23)[C@@H]1CO [Example 76, (+)-trans-2-(3-Fluoro-phenyl)-5,7-dihydroxy-8-(2-hydroxymethyl-1-methyl-pyrrolidin-3-yl)-chromen-4-one]
10 | 145 to 147 °C | Cc1cc(C#N)ccc1-c1cc(=O)c2c(O)cc(O)c([C@@H]3CCN(C)[C@H]3CO)c2o1 [Example 60, (+)-trans-4-[5,7-Dihydroxy-8-(2-hydroxymethyl-1-methyl-pyrrolidin-3-yl)-4-oxo-4H-chromen-2-yl]-3-methyl-benzonitrile]
11 | > 300 °C | CN1CC[C@@H](c2c(O)cc(O)c3c(=O)cc(-c4ccc(O)cc4Cl)oc23)[C@@H]1CO (racemic) [Example 104, (±)-trans-2-(2-Chloro-4-hydroxy-phenyl)-5,7-dihydroxy-8-(2-hydroxymethyl-1-methyl-pyrrolidin-3-yl)-chromen-4-one]
12 | 237 to 239 °C | CN1CC[C@@H](c2c(O)cc(O)c3c(=O)cc(-c4cccc(F)c4Br)oc23)[C@@H]1CO [Example 136, (+)-trans-2-(2-Bromo-3-fluoro-phenyl)-5,7-dihydroxy-8-(2-hydroxymethyl-1-methyl-pyrrolidin-3-yl)-chromen-4-one]
13 | 192 to 193 °C | CN1CC[C@@H](c2c(O)cc(O)c3c(=O)cc(-c4cc(F)ccc4Cl)oc23)[C@@H]1CO.CS(=O)(=O)O (racemic) [Example 25, (±)-trans-2-(2-Chloro-5-fluoro-phenyl)-5,7-dihydroxy-8-(2-hydroxymethyl-1-methyl-pyrrolidin-3-yl)-chromen-4-one methane sulfonate]
14 | 212 to 213 °C | CN1CC[C@@H](c2c(O)cc(O)c3c(=O)cc(-c4ccccc4O)oc23)[C@@H]1CO (racemic) [Example 96, (±)-trans-5,7-Dihydroxy-8-(2-hydroxymethyl-1-methyl-pyrrolidin-3-yl)-2-(2-hydroxy-phenyl)-chromen-4-one]
15 | 221 to 223 °C | CN1CC[C@@H](c2c(O)cc(O)c3c(=O)cc(-c4cccc(F)c4Cl)oc23)[C@@H]1CO [Example 134, (+)-trans-2-(2-Chloro-3-fluoro-phenyl)-5,7-dihydroxy-8-(2-hydroxymethyl-1-methyl-pyrrolidin-3-yl)-chromen-4-one]
16 | 233 to 235 °C | CN1CC[C@@H](c2c(O)cc(O)c3c(=O)cc(-c4cc(Cl)ccc4Br)oc23)[C@@H]1CO [Example 140, (+)-trans-2-(2-Bromo-5-chloro-phenyl)-5,7-dihydroxy-8-(2-hydroxymethyl-1-methyl-pyrrolidin-3-yl)-chromen-4-one]
17 | 155 to 156 °C | CN1CC[C@@H](c2c(O)cc(O)c3c(=O)cc(-c4ccc(Br)cc4Cl)oc23)[C@@H]1CO [Example 100, (+)-trans-2-(4-Bromo-2-chloro-phenyl)-5,7-dihydroxy-8-(2-hydroxymethyl-1-methyl-pyrrolidin-3-yl)-chromen-4-one]
18 | 205 to 206 °C | CN1CC[C@@H](c2c(O)cc(O)c3c(=O)cc(-c4ccccc4Cl)oc23)[C@@H]1CS (racemic) [Example 115, (±)-trans-2-(2-Chloro-phenyl)-5,7-dihydroxy-8-(2-mercaptomethyl-1-methyl-pyrrolidin-3-yl)-chromen-4-one]
19 | 233 to 235 °C | CN1CC[C@@H](c2c(O)cc(O)c3c(=O)cc(-c4ccccc4I)oc23)[C@@H]1CO [Example 19, (+)-trans-5,7-Dihydroxy-8-(2-hydroxymethyl-1-methyl-pyrrolidin-3-yl)-2-(2-iodo-phenyl)-chromen-4-one]

More lines, now with the values behind:

Row | SMILES | melting point
20 | CCCN1CC[C@@H](c2c(O)cc(O)c3c(=O)cc(-c4ccccc4Cl)oc23)[C@@H]1CO (racemic) [Example 132, (±)-trans-2-(2-Chloro-phenyl)-5,7-dihydroxy-8-(2-hydroxymethyl-1-propyl-pyrrolidin-3-yl)-chromen-4-one] | 94 to 96 °C
21 | CN1CC[C@@H](c2c(O)cc(O)c3c(=O)cc(-c4ccc(N)cc4)oc23)[C@@H]1CO [Example 94, (+)-trans-2-(4-Amino-phenyl)-5,7-dihydroxy-8-(2-hydroxymethyl-1-methyl-pyrrolidin-3-yl)-chromen-4-one] | 172 to 174 °C
22 | COc1cc(OC)c2c(=O)cc(-c3ccc(C(F)(F)F)cc3)oc2c1[C@@H]1CCN(C)[C@H]1CO (racemic) [Example 62, (±)-trans-8-(2-Hydroxymethyl-1-methyl-pyrrolidin-3-yl)-5,7-dimethoxy-2-(4-trifluoromethyl-phenyl)-chromen-4-one] | 114 to 115 °C
23 | CN1CC[C@@H](c2c(O)cc(O)c3c(=O)cc(-c4ccccc4Cl)oc23)[C@@H]1CC#N (racemic) [Example 111, (±)-trans-{3-[2-(2-Chloro-phenyl)-5,7-dihydroxy-4-oxo-4H-chromen-8-yl]-1-methyl-pyrrolidin-2-yl}-acetonitrile] | 107 to 108 °C
24 | COc1cc(OC)c2c(=O)cc(-c3ccccc3Cl)oc2c1[C@@H]1CCN(C)[C@H]1CO [Example 13, (+)-trans-2-(2-Chloro-phenyl)-8-(2-hydroxymethyl-1-methyl-pyrrolidin-3-yl)-5,7-dimethoxy-chromen-4-one] | 91 to 93 °C
25 | CN1CC[C@@H](c2c(O)cc(O)c3c(=O)cc(-c4ccc([N+](=O)[O-])cc4)oc23)[C@@H]1CO [Example 92, (+)-trans-5,7-Dihydroxy-8-(2-hydroxymethyl-1-methyl-pyrrolidin-3-yl)-2-(4-nitro-phenyl)-chromen-4-one] | 275 to 277 °C
26 | COc1cc(OC)c2c(=O)cc(-c3ccccc3Cl)oc2c1[C@@H]1CCN(C)[C@H]1CO (racemic) [Example 7, (±)-trans-2-(2-Chloro-phenyl)-8-(2-hydroxymethyl-1-methyl-pyrrolidin-3-yl)-5,7-dimethoxy-chromen-4-one] | 95 to 97 °C
27 | COc1cc(OC)c2c(=O)cc(-c3ccc(C#N)cc3)oc2c1[C@@H]1CCN(C)[C@H]1CO (racemic) [Example 81, (±)-trans-4-[8-(2-Hydroxymethyl-1-methyl-pyrrolidin-3-yl)-5,7-dimethoxy-4-oxo-4H-chromen-2-yl]-benzonitrile] | 214 to 216 °C
28 | CN1CC[C@@H](c2c(O)cc(O)c3c(=O)cc(-c4ccccc4Cl)oc23)[C@@H]1C(=O)O (racemic) [Example 144, (±)-trans-3-[2-(2-Chloro-phenyl)-5,7-dihydroxy-4-oxo-4H-chromen-8-yl]-1-methyl-pyrrolidine-2-carboxylic acid] | 295 to 297 °C
29 | CN1CC[C@@H](c2c(O)cc(O)c3c(=O)cc(-c4ccccc4)oc23)[C@@H]1CO [Example 57, (+)-trans-5,7-Dihydroxy-8-(2-hydroxymethyl-1-methyl-pyrrolidin-3-yl)-2-phenyl-chromen-4-one] | 212 to 215 °C
30 | COc1cc(OC)c2c(=O)cc(-c3ccccc3Cl)oc2c1[C@@H]1CCN(C)[C@H]1C(=O)O (racemic) [Example 143, (±)-trans-3-[2-(2-Chloro-phenyl)-5,7-dimethoxy-4-oxo-4H-chromen-8-yl]-1-methyl-pyrrolidine-2-carboxylic acid] | 165 to 167 °C
31 | CN1CC[C@@H](c2c(O)cc(O)c3c(=O)cc(-c4ccc(C(F)(F)F)cc4)oc23)[C@@H]1CO (racemic) [Example 63, (±)-trans-5,7-Dihydroxy-8-(2-hydroxymethyl-1-methyl-pyrrolidin-3-yl)-2-(4-trifluoromethyl-phenyl)-chromen-4-one] | 238 °C
32 | CN1CC[C@@H](c2c(O)cc(O)c3c(=O)cc(-c4ccc(C(F)(F)F)cc4)oc23)[C@@H]1CO [Example 65, (+)-trans-5,7-Dihydroxy-8-(2-hydroxymethyl-1-methyl-pyrrolidin-3-yl)-2-(4-trifluoromethyl-phenyl)-chromen-4-one] | 235 to 237 °C
